Measured values: patent publication US8247556B2, “Method for preparing 6-substituted-7-aza-indoles” (Amgen Inc., priority 2005, dated 2012)

Tested on: VEGF-stimulated HUVEC proliferation (Human Umbilical Vein Endothelial cells)
Assay: HUVEC Proliferation Assay
Format: cell-based
Details: VEGF 50 ng/mL, 72 h, CyQuant fluorescent dye, read-out: inhibited VEGF-stimulated HUVEC proliferation at a level
Protocol: Human Umbilical Vein Endothelial cells are purchased from Clonetics, Inc., as cryopreserved cells harvested from a pool of donors. These cells, at passage 1, are thawed and expanded in EBM-2 complete medium, until passage 2 or 3. The cells are trypsinized, washed in DMEM+10% FBS+antibiotics, and spun at 1000 rpm for 10 min. Prior to centrifugation of the cells, a small amount is collected for a cell count. After centrifugation, the medium is discarded, and the cells are resuspended in the appropriate volume of DMEM+10% FBS+antibiotics to achieve a concentration of 3×10^5 cells/mL. Another cell count is performed to confirm the cell concentration. The cells are diluted to 3×10^4 cells/mL in DMEM+10% FBS+antibiotics, and 100 μL of cells are added to a 96-well plate. The cells are incubated at 37° C. for 22 h.
Prior to the completion of the incubation period, compound dilutions are prepared. Five-point, five-fold serial dilutions are prepared in DMSO, at concentrations 400-fold greater than the final concentrations desired. 2.5 μL of each compound dilution are diluted further in a total of 1 mL DMEM+10% FBS+antibiotics (400× dilution). Medium containing 0.25% DMSO is also prepared for the 0 μM compound sample. At the 22 h time point, the medium is removed from the cells, and 100 μL of each compound dilution is added. The cells are incubated at 37° C. for 2-3 h.
During the compound pre-incubation period, the growth factors are diluted to the appropriate concentrations. Solutions of DMEM+10% FBS+antibiotics, containing either VEGF or bFGF at the following concentrations: 50, 10, 2, 0.4, 0.08, and 0 ng/mL are prepared. For the compound-treated cells, solutions of VEGF at 550 ng/mL or bFGF at 220 ng/mL for 50 ng/mL or 20 ng/mL final concentrations, respectively, are prepared since 10 μL of each will be added to the cells (110 μL final volume). At the appropriate time after adding the compounds, the growth factors are added. VEGF is added to one set of plates, while bFGF is added to another set of plates. For the growth factor control curves, the media on wells B4-G6 of plates 1 and 2 are replaced with media containing VEGF or bFGF at the varying concentrations (50-0 ng/mL). The cells are incubated at 37° C. for an additional 72 h.
At the completion of the 72 h incubation period, the medium is removed, and the cells are washed twice with PBS. After the second wash with PBS, the plates are tapped gently to remove excess PBS, and the cells are placed at −70° C. for at least 30 min. The cells are thawed and analyzed using the CyQuant fluorescent dye (Molecular Probes C-7026), following the manufacturer's recommendations. The plates are read on a Victor/Wallac 1420 workstation at 485 nm/530 nm (excitation/emission). Raw data are collected and analyzed using a 4-parameter fit equation in XLFit. IC50 values are then determined.

Structure (SMILES) | IC50 [nM]
CC1(C)CNCc2cc(NC(=O)c3cc(F)cnc3NCc3ccnc4[nH]ccc34)ccc21 [Example 101, N-(4,4-dimethyl-1,2,3,4-tetrahydro-7-isoquinolinyl)-5-fluoro-2-((1H-pyrrolo[2,3-b]pyridin-4-ylmethyl)amino)-3-pyridinecarboxamide] | < 500
CC1Sc2ccc(NC(=O)c3cc(F)cnc3NCc3ccnc4[nH]ccc34)cc2NC1=O (stereo not shown) [Example 108, 5-fluoro-N-(2-methyl-3-oxo-3,4-dihydro-2H-1,4-benzothiazin-6-yl)-2-((1H-pyrrolo[2,3-b]pyridin-4-ylmethyl)amino)-3-pyridinecarboxamide] | < 500
Cc1ccc(NC(=O)c2cc(F)cnc2NCc2ccnc3[nH]ccc23)cc1 [Example 109, 5-fluoro-N-(4-methylphenyl)-2-((1H-pyrrolo[2,3-b]pyridin-4-ylmethyl)amino)-3-pyridinecarboxamide] | < 500
Cc1ccc(NC(=O)c2cc(F)cnc2NCc2ccnc3[nH]ccc23)cc1Cl [Example 110, N-(3-chloro-4-methylphenyl)-5-fluoro-2-((1H-pyrrolo[2,3-b]pyridin-4-ylmethyl)amino)-3-pyridinecarboxamide] | < 500
Cc1ccc(NC(=O)c2cc(F)cnc2NCc2ccnc3[nH]ccc23)cc1F [Example 111, 5-fluoro-N-(3-fluoro-4-methylphenyl)-2-((1H-pyrrolo[2,3-b]pyridin-4-ylmethyl)amino)-3-pyridinecarboxamide] | < 500
CN(C)c1nc2cc(NC(=O)c3cc(F)cnc3NCc3ccnc4[nH]ccc34)ccc2s1 [Example 114, N-(2-(dimethylamino)-1,3-benzothiazol-5-yl)-5-fluoro-2-((1H-pyrrolo[2,3-b]pyridin-4-ylmethyl)amino)-3-pyridinecarboxamide] | < 500
Cc1nc2cc(NC(=O)c3cc(F)cnc3NCc3ccnc4c3CCN4)ccc2s1 [Example 115, 2-((2,3-dihydro-1H-pyrrolo[2,3-b]pyridin-4-ylmethyl)amino)-5-fluoro-N-(2-methyl-1,3-benzothiazol-5-yl)-3-pyridinecarboxamide] | < 500
O=C(Nc1ccc(Cl)c(C(F)(F)F)c1)c1cc(F)cnc1NCc1ccnc2[nH]ncc12 [Example 119, N-(4-Chloro-3-(trifluoromethyl)phenyl)-5-fluoro-2-((1H-pyrazolo[3,4-b]pyridin-4-ylmethyl)amino)-3-pyridinecarboxamide] | < 500
O=C(Nc1cccc(C(F)(F)F)c1)c1cc(F)cnc1NCc1ccnc2[nH]ncc12 [Example 122, 5-Fluoro-2-((1H-pyrazolo[3,4-b]pyridin-4-ylmethyl)amino)-N-(3-(trifluoromethyl)phenyl)-3-pyridinecarboxamide] | < 500
CC(C)Oc1ccc(NC(=O)c2cc(F)cnc2NCc2ccnc3[nH]ncc23)cc1 [Example 124, 5-Fluoro-N-(4-((1-methylethyl)oxy)phenyl)-2-((1H-pyrazolo[3,4-b]pyridin-4-ylmethyl)amino)-3-pyridinecarboxamide] | < 500
O=C(Nc1ccc(C(F)(F)F)c(F)c1)c1cc(F)cnc1NCc1ccnc2[nH]ncc12 [Example 128, 5-Fluoro-N-(3-fluoro-4-(trifluoromethyl)phenyl)-2-((1H-pyrazolo[3,4-b]pyridin-4-ylmethyl)amino)-3-pyridinecarboxamide] | < 500
CC1(C)CNCc2cc(NC(=O)c3cc(F)cnc3NCc3ccnc4[nH]ncc34)ccc21 [Example 129, N-(4,4-Dimethyl-1,2,3,4-tetrahydro-7-isoquinolinyl)-5-fluoro-2-((1H-pyrazolo[3,4-b]pyridin-4-ylmethyl)amino)-3-pyridinecarboxamide] | < 500
CC1(C)CCNc2cc(NC(=O)c3cccnc3NCc3ncnc4[nH]ccc34)ccc21 [Example 131, N-(4,4-Dimethyl-1,2,3,4-tetrahydro-7-quinolinyl)-2-((7H-pyrrolo[2,3-d]pyrimidin-4-ylmethyl)amino)-3-pyridinecarboxamide] | < 500
